Measured values as given in PubChem BioAssay (NCI).
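Results reflect a 48-hour exposure of cells in 96-well plates to compound at five concentrations. The concentration for 50% growth inhibition is given as GI50. TGI: total growth inhibition.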

Key:
Assay in all cases: NCI-60 cell line screen, 48 h
KM12 colon = test system: KM12 colon
SF-295 CNS = test system: SF-295 CNS
NCI-H226 lung = test system: NCI-H226 lung
U251 CNS = test system: U251 CNS
NCI-H460 lung = test system: NCI-H460 lung
BT-549 breast = test system: BT-549 breast
LOX IMVI melanoma = test system: LOX IMVI melanoma
OVCAR-3 ovarian = test system: OVCAR-3 ovarian
HS 578T breast = test system: HS 578T breast
OVCAR-4 ovarian = test system: OVCAR-4 ovarian
HCT-15 colon = test system: HCT-15 colon
SF-268 CNS = test system: SF-268 CNS
HOP-62 NSCLC = test system: HOP-62 NSCLC
SK-MEL-28 melanoma = test system: SK-MEL-28 melanoma
DU-145 prostate = test system: DU-145 prostate
MCF7 breast = test system: MCF7 breast
SNB-19 CNS = test system: SNB-19 CNS
SK-OV-3 ovarian = test system: SK-OV-3 ovarian
UACC-257 melanoma = test system: UACC-257 melanoma
SN12C renal = test system: SN12C renal
MOLT-4 leukemia = test system: MOLT-4 leukemia
CAKI-1 renal = test system: CAKI-1 renal
TK-10 renal = test system: TK-10 renal
IGROV1 ovarian = test system: IGROV1 ovarian
PC-3 prostate = test system: PC-3 prostate
MDA-MB-435 = test system: MDA-MB-435
M14 melanoma = test system: M14 melanoma
RPMI-8226 leukemia = test system: RPMI-8226 leukemia
A498 renal = test system: A498 renal

CN[C@H](C#Cc1c(F)ccc2c1/C(=C/c1[nH]ccc1OC)C(=O)N2)CO
TGI (KM12 colon): 1760 nM | GI50 (SF-295 CNS): 946 nM | TGI (SF-295 CNS): 25000 nM | GI50 (NCI-H226 lung): 410 nM | TGI (NCI-H226 lung): 1720 nM | GI50 (U251 CNS): 323 nM | TGI (U251 CNS): 2940 nM | GI50 (NCI-H460 lung): 358 nM | TGI (NCI-H460 lung): 2580 nM | GI50 (BT-549 breast): 1150 nM | TGI (BT-549 breast): 4150 nM | GI50 (LOX IMVI melanoma): 344 nM | TGI (LOX IMVI melanoma): 2540 nM | GI50 (OVCAR-3 ovarian): 869 nM | TGI (OVCAR-3 ovarian): 3100 nM | GI50 (HS 578T breast): 212 nM | TGI (HS 578T breast): 12900 nM | GI50 (OVCAR-4 ovarian): 631 nM | TGI (OVCAR-4 ovarian): 4220 nM | GI50 (HCT-15 colon): 117 nM | TGI (HCT-15 colon): 3020 nM | GI50 (SF-268 CNS): 509 nM | TGI (SF-268 CNS): 2210 nM | GI50 (HOP-62 NSCLC): 628 nM | TGI (HOP-62 NSCLC): 2420 nM | GI50 (SK-MEL-28 melanoma): 646 nM | TGI (SK-MEL-28 melanoma): 4310 nM | GI50 (DU-145 prostate): 411 nM | TGI (DU-145 prostate): 3000 nM | GI50 (MCF7 breast): 569 nM | TGI (MCF7 breast): 3680 nM | GI50 (SNB-19 CNS): 1060 nM | TGI (SNB-19 CNS): 21000 nM | GI50 (SK-OV-3 ovarian): 117 nM | TGI (SK-OV-3 ovarian): 8120 nM | GI50 (UACC-257 melanoma): 1520 nM | TGI (UACC-257 melanoma): 4930 nM | GI50 (SN12C renal): 200 nM | TGI (SN12C renal): 25000 nM | GI50 (MOLT-4 leukemia): 386 nM | TGI (MOLT-4 leukemia): 3800 nM | GI50 (CAKI-1 renal): 31.4 nM | TGI (CAKI-1 renal): 736 nM | GI50 (TK-10 renal): 247 nM | TGI (TK-10 renal): 2250 nM | GI50 (IGROV1 ovarian): 682 nM | TGI (IGROV1 ovarian): 3320 nM | GI50 (PC-3 prostate): 1030 nM | TGI (PC-3 prostate): 10800 nM | GI50 (MDA-MB-435): 354 nM | TGI (MDA-MB-435): 2820 nM | GI50 (M14 melanoma): 403 nM | TGI (M14 melanoma): 3140 nM | GI50 (RPMI-8226 leukemia): 689 nM | TGI (RPMI-8226 leukemia): 1800 nM | GI50 (A498 renal): 452 nM | TGI (A498 renal): 3350 nM
